{"source": "patent US7638509B2", "about": "“Diene compounds and formulations” (priority 2003, dated 2009)", "key": {"[1]": {"target": "T1, glucocorticoid receptor (GR) (Homo sapiens, UniProt P04150)", "T1 construct": "expressed in transfected cells; host or cells: PC-3", "T1 sequence (P04150 1-777)": "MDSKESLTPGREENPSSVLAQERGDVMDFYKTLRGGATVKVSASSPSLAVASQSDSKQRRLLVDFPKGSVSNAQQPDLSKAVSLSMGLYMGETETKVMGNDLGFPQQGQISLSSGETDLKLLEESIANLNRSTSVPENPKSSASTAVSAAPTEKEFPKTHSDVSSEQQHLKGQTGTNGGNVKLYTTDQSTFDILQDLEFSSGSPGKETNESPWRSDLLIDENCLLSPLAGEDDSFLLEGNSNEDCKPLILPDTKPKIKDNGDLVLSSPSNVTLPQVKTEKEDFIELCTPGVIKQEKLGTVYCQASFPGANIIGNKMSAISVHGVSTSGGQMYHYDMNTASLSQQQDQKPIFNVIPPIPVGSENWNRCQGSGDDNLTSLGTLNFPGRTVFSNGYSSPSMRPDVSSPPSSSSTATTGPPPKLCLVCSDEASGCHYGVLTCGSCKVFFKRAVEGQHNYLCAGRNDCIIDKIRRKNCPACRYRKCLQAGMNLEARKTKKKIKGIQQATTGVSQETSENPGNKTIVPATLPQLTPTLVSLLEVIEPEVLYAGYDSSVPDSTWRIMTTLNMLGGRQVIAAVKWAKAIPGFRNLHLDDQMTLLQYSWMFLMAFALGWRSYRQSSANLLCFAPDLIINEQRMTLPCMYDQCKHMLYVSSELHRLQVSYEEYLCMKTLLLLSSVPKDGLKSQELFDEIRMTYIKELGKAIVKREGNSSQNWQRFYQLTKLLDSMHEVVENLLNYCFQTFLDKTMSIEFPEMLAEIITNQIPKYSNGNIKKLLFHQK", "experiment": "Steroid hormone specificity, GR/MMTV-Luc in PC-3 cells", "format": "cell-based", "conditions": "PC-3, GR/MMTV-Luc, ADEK at 0.01 mM, 0.1 mM and 1.0 mM, 24 h", "experimental": "Cell Culture, Transfection, and Reporter Gene Assay. The human prostate cancer cell lines, LNCaP, PC-3, and DU145, and non-prostate cancer cell line COS-1 were maintained in RPMI or Dulbecco's modified Eagle's medium (DMEM) (Life Technologies) supplemented with 10% fetal bovine serum (FBS). Transfections and luciferase (Luc) assays were performed as previously described (Miyamoto, H., Yeh, S., Wilding, G. & Chang, C. (1998) Proc. Natl. Acad. Sci. USA 95, 7379-7384; Miyamoto, H., Rahman, M., Takatera, H., Kang, H.-Y., Yeh, S., Chang, H.-C., Nishimura, K., Fujimoto, N. & Chang, C. (2002) J. Biol. Chem. 277, 4609-4617). Briefly, cells seeded to reach a density of 50-60% confluence in 12 well tissue culture plates were transfected with 1.5 μg of DNA according to “SuperFect transfection” instructions (Qiagen). […] The Luc activity was determined using a Dual-Luciferase Reporter Assay System (Promega) and luminometer.\nSteroid Hormone Specificity of ADEK. To characterize the steroid hormone activity of ADEK, PC-3 cells were transfected with steroid receptor/reporter (progesterone receptor (PR)/MMTV-Luc, glucocorticoid receptor (GR)/MMTV-Luc, or estrogen receptor (ER)/ERE-Luc) and analyzed for expression of the Luc reporter gene. […] The Luc activity was measured relative to that of ETOH treatment (set as 1-fold). […]"}, "[2]": {"target": "T2, wild-type AR (Homo sapiens, UniProt P10275)", "T2 sequence (P10275 1-920)": "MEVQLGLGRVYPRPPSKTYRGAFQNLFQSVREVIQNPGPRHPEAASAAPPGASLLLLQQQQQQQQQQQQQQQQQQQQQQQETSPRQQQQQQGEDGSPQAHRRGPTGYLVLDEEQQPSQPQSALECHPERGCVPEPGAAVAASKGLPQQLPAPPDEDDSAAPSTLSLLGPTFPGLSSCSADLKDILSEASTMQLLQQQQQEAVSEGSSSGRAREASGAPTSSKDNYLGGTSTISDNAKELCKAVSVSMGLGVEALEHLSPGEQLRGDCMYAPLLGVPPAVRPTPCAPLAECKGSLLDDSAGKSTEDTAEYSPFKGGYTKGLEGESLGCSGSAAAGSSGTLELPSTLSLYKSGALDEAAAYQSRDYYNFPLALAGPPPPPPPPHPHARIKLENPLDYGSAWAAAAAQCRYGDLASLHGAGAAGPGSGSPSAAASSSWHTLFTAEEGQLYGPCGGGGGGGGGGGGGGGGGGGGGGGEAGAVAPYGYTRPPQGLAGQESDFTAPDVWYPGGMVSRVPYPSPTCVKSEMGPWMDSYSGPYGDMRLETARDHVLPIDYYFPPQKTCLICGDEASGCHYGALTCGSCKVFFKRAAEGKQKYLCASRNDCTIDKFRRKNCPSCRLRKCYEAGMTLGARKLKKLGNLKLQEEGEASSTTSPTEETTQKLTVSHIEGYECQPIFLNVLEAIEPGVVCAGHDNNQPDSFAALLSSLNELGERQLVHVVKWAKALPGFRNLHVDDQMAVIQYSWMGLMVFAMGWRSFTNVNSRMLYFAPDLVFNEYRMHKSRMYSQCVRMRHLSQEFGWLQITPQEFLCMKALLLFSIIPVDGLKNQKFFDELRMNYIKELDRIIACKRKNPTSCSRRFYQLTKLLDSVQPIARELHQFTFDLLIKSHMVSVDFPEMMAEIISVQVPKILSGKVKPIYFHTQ", "experiment": "AR transcriptional activity (androgenic activity), MMTV-Luc reporter in PC-3 cells transfected with wild-type AR", "format": "cell-based", "design": "expressed in transfected cells; host or cells: PC-3", "conditions": "PC-3, wild-type AR plasmid + MMTV-Luc, compound at 1000 nM, 24 h", "experimental": "Cell Culture, Transfection, and Reporter Gene Assay. The human prostate cancer cell lines, LNCaP, PC-3, and DU145, and non-prostate cancer cell line COS-1 were maintained in RPMI or Dulbecco's modified Eagle's medium (DMEM) (Life Technologies) supplemented with 10% fetal bovine serum (FBS). Transfections and luciferase (Luc) assays were performed as previously described (Miyamoto, H., Yeh, S., Wilding, G. & Chang, C. (1998) Proc. Natl. Acad. Sci. USA 95, 7379-7384; Miyamoto, H., Rahman, M., Takatera, H., Kang, H.-Y., Yeh, S., Chang, H.-C., Nishimura, K., Fujimoto, N. & Chang, C. (2002) J. Biol. Chem. 277, 4609-4617). Briefly, cells seeded to reach a density of 50-60% confluence in 12 well tissue culture plates were transfected with 1.5 μg of DNA according to “SuperFect transfection” instructions (Qiagen). After 2-3 h incubation, cells were treated with medium supplemented with charcoal-stripped FBS containing either ethanol or ligands for 24 h. The cells were then harvested and whole cell extracts were used for Luc assay. The Luc activity was determined using a Dual-Luciferase Reporter Assay System (Promega) and luminometer.\nAnti-DHT Effect of DHEA Derivatives with Low Androgenic Activity on AR Transcription. Test compounds as antiandrogenic compounds, were characterized by analysis of their ability to induce AR transcriptional activity in the AR-negative PC-3 cell line. The Luc activity was determined in the cell extracts with transient transfection of wild-type AR plasmid and androgen response element-reporter plasmid (mouse mammary tumor virus (MMTV)-Luc). After transfection, the cells were treated with various compounds at 0.1-1,000 nM.\nTo accomplish these studies, PC-3 cells were transfected with the wild-type AR expression plasmid pSG5-AR and MMTV-Luc. […] The Luc activity was measured relative to that of ethanol treatment (set as 1-fold). Values from the mean±SD of at least three determinations were used. PC-3 cells were transfected with the pSG5-AR and MMTV-Luc. […] Values from the mean±SD of at least three determinations were obtained."}}}
{"smiles": "CC(=O)O[C@H]1C=C[C@@]2(C)C(=CC[C@@H]3[C@@H]2CC[C@@]2(C)[C@H]3CCC23OCCO3)C1", "note": "[ADEK, 3β-acetoxy-17,17-ethylenedioxyandrosta-1,5-diene]", "values": [{"measurement": "glucocorticoid activity (in words)", "setting": "[1]", "value": "no significant"}, {"measurement": "induction on AR transcription as compared to mock treatment", "setting": "[2]", "value": "marginal induction"}]}
